In series [1] the test system is Human keratinocytes. Description: Human keratinocyte proliferation (cell numbers). The class given is cell-based. The following applies: varying concentrations.
In series [2] the test system is Human keratinocytes. The series can be described thus: Cell toxicity by lactate dehydrogenase release in keratinocyte culture. It is filed as cell-based. Particulars: highest concentration tested.
Series [3] relates to 3T3 L 1 fibroblasts. Description: 3T3 L1 fibroblast proliferation (cell numbers). Particulars: 3T3L1 cells. The class given is cell-based. On the procedure: (§1) This example illustrates the effects of compound 87 and troglitazone on proliferation of 3T3 L 1 fibroblasts and differentiation into adipocytes. 3T3L1 cells were incubated with varying concentrations of either compound 87 or troglitazone and the effects on cell proliferation determined by measurement of cell numbers. […] The compounds of the present invention are capable of preventing cell proliferation without inducing adipogenesis and represent useful agents for treatment and prevention of obesity.

Series [4] relates to Human MCF-7 breast cancer cells. Description: MCF-7 breast cancer cell proliferation (cell numbers). It is filed as cell-based. Particulars: MCF-7, varying concentrations.
Series [5] relates to 3T3 L 1 fibroblasts. The series can be described thus: 3T3 L1 differentiation into adipocytes (morphology, oil red O staining). It is filed as cell-based. The following applies: 3T3L1 cells. On the procedure: as §1
Series [6] relates to insulin resistant obese Zucker rats. The series can be described thus: Serum insulin and glucose in insulin resistant obese Zucker rats. The following applies: oral 100 mg/kg/day for one week, versus placebo controls. The class given is in vivo, rat. From the text: The drug was suspended in a mixture of 0.5% carboxymethylcellulose and administered by gavage. […] After one week, blood samples were obtained for measurement of serum insulin levels by radioimmunoassay and serum glucose levels by glucose oxidase method. […] The effects of a higher dose of orally administered Rezulin® (troglitazone) on serum insulin and glucose levels in male obese Zucker rats as reported by Fujiwara et al., Diabetes 37.1549 are shown for comparison purposes.

For series [7] the test system is unchanged. Description: Triglyceride levels in insulin resistant obese Zucker rats. The class given is in vivo, rat. Particulars: oral 100 mg/kg/day for one week. From the text: The drug was suspended in a mixture of 0.5% carboxymethylcellulose and administered by gavage.
Series [8] relates to Human HT-29 colon cancer cells. The series can be described thus: HT-29 colon cancer cell proliferation (cell numbers). The class given is cell-based.
The conditions of series [9]: Ulrich et al., U.S. Pat. No. 5,728,735; cited from earlier work.
The test system of series [10] is Human MDA-MB-23 1 breast cancer cells. Description: MDA-MB-231 breast cancer cell proliferation (cell numbers). The class given is cell-based. How it is done: […]. […] Human MDA-MB-23 1 breast cancer cells were incubated with varying concentrations of either compound 86 or troglitazone and the effects on cell proliferation determined by measurement of cell numbers. […]. Compound 86 inhibits growth of human breast cancer cells.

Another series concerns the target T1, PPAR gamma (Mus musculus, UniProt P37238).
T1 sequence (P37238 1-505): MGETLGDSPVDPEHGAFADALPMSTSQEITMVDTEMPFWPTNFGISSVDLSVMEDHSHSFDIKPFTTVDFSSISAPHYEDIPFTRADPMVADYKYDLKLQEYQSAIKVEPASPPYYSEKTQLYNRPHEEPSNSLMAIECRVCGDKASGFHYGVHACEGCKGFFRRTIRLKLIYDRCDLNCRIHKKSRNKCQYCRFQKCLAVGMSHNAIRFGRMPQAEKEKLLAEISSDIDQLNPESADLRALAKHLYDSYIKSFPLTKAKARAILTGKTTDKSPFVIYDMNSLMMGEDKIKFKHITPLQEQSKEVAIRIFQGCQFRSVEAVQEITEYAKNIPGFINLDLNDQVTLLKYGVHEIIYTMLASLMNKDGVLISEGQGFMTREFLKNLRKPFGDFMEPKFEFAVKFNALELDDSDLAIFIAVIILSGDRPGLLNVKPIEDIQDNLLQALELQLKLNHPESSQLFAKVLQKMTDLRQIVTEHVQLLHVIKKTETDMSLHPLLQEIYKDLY
Description: In vitro molecular assays of PPAR gamma activation.

The text below walks through data of US6353011B1, “1,2-dithiolane derivatives” (University of Mississippi, priority 1999, dated 2002).

Turning to `CN(CCOc1ccc(CC2SC(=O)NC2=O)cc1)C(=O)CCCCC1CCSS1` (centres unmarked) [compound 12], the “cell proliferation (cell numbers)” value is listed as “dose dependent inhibition of cell proliferation” in the series on Human keratinocytes [1]; “dose dependent inhibition of malignant cell proliferation” in series [4]; “dose dependent inhibition of cell proliferation” in series [8] (HT-29, varying concentrations). Also, in the series on Human keratinocytes [2], the “cell toxicity (release of lactate dehydrogenase in the culture medium)” value was “without inducing cell toxicity”. In addition, the “potency of inhibition of fibroblast proliferation compared with troglitazone” value in the series with 3T3 L 1 fibroblasts [3] is “in a more potent fashion than troglitazone”. In addition, the “fibroblast proliferation (cell numbers)” value with 3T3 L 1 fibroblasts [3] (varying concentrations) is on record as “dose dependent inhibition of fibroblast proliferation”. The “adipogenesis and conversion of the fibroblasts to adipocytes” value in the series on 3T3 L 1 fibroblasts [5] is “potent inducers of adipogenesis”. In [6] (glucose oxidase method), the serum glucose levels entry is “reductions in glucose levels”. Further, the serum insulin levels entry in [6] (radioimmunoassay) is given as “reductions in serum insulin levels”. Moreover, the triglyceride levels entry in [7] is recorded as “potent ability to reduce triglyceride levels”. Besides, in series [8] (HT-29), the “potency in inhibiting malignant cell proliferation compared with troglitazone” value was “more potent than troglitazone”.
`Cc1c(C)c2c(c(C)c1O)CCC(C)(COc1ccc(CC3SC(=O)NC3=O)cc1)O2` (centres unmarked) [troglitazone, reference compound]: in the series on Human keratinocytes [2], the “cell toxicity (release of lactate dehydrogenase in the culture medium)” value is listed as “associated with cell toxicity”.
Consider `O=C(O)CCCC[C@@H]1CCSS1` [R-lipoic acid], for which the “anti-inflammatory activity, factor stronger than that of the racemate” value in series [9] is listed as 10.
In the case of `O=C(CCCCC1CCSS1)NCCOc1ccc(CC2SC(=O)NC2=O)cc1` (centres unmarked) [compound 86], in series [10] (MDA-MB-23 1), the “potency in inhibiting malignant cell proliferation compared with troglitazone” value is recorded as “more potent than troglitazone”. The “cell proliferation (cell numbers)” value in series [10] (MDA-MB-23 1, varying concentrations) is “dose dependent inhibition of cell proliferation”.
Take `CN(C(=O)CCCCC1CCSS1)c1ccc(CC2SC(=O)NC2=O)cc1` (centres unmarked) [compound 87]: the “adipogenesis and conversion of the fibroblasts to adipocytes” value in the series with 3T3 L 1 fibroblasts [5] is “but not compound 87 induced adipogenesis”. The “activation of PPAR gamma” value at PPAR gamma is recorded as “did not activate PPAR gamma”.
